B1: Erwinase: Licensed drug derived from the Asparaginase of Erwinia chrysanthemi; nutrient stress-inducing agent (protein, UniProt P06608 22-348, looked up)
L-asparaginase: ADKLPNIVILATGGTIAGSAATGTQTTGYKAGALGVDTLINAVPEVKKLANVKGEQFSNMASENMTGDVVLKLSQRVNELLARDDVDGVVITHGTDTVEESAYFLHLTVKSDKPVVFVAAMRPATAISADGPMNLLEAVRVAGDKQSRGRGVMVVLNDRIGSARYITKTNASTLDTFKANEEGYLGVIIGNRIYYQNRIDKLHTTRSVFDVRGLTSLPKVDILYGYQDDPEYLYDAAIQHGVKGIVYAGMGAGSVSVRGIAGMRKAMEKGVVVIRSTRTGNGIVPPDEELPGLVSDSLNPAHARILLMLALTRTSDPKVIQEYFHTY

How the values were obtained:
Assay type in all cases: cell-based, human
TRAF1 [1] = assay: TRAF1 levels by flow cytometry in knockdown RAJI; conditions: RAJI knockdown cells versus control sample
Description: (§1) (A) Whole cell extracts from RAJI cells treated with control shRNA (shCTRL) or TRAF2 shRNA (shTRAF2) were immunoblotted for TRAF2 or as a loading control, GAPDH. (B) Annexin V staining of RAJI after Erwinase treatment (1 IU/ml; 24 hrs) in shCTRL, shTRAF1 or shTRAF2 cells.
(§2) TRAF2 knockdown also decreases RAJI survival in the presence of Erwinase (FIG. 14). […] On the Y axis, is indicated knockdown of TRAF2, PKN1, TRAF1 or control sample. The vertical dashed line indicates the peak level of expression in the control sample for comparison with the knockdown cells.

RAJI cells [2] = assay: Annexin V / propidium iodide cell death by flow cytometry, RAJI; conditions: 1 IU/ml Erwinase
Protocol: RAJI cells stably expressing control shRNA (shCtrl), TRAF1 shRNA (shTRAF1) or PKN1 shRNA (shPKN1) were left untreated or treated with 1 IU/ml Erwinase for the indicated time points. For cells treated with Erwinase for longer than 24 hrs, cell culture media was replaced every 24 hrs and 1 IU/ml Erwinase was added to ensure the continued absence of glutamine. Cells were then stained with Annexin V-FITC (ebioscience) and Propidium Iodide (PI) and then analyzed by flow cytometry (BD LSR Fortessa). The upper right quadrant (Q2) indicates the fraction dead cells.
as §1
(§3) It was next asked what the effect of reducing TRAF1 and its signalling partner TRAF2 in lymphoma had on cell proliferation and survival. […] To determine whether this effect was due to death of the lymphoma cells, Annexin V and propidium iodide (PI) staining of the lymphomas were analyzed at different times after transfer to Erwinase containing medium. Annexin V binds to phosphatidyl serine, which becomes exposed on the surface of cells as they undergo apoptosis. Then, cells become permeable to propidium iodide upon death. […] The slightly greater effect on cell death of direct TRAF1 knockdown compared to PKN1 knockdown is consistent with the smaller effect of PKN1 knockdown on TRAF1 levels compared to direct TRAF1 knockdown with shTRAF1.

Erk and NF-κB activation = assay: Flow cytometry for pERK and phospho P65 subunit of NFkB; conditions: RAJI knockdown cells versus control sample
Description: as §1, §2

[3] = system: Chronic lymphocytic leukemia cell line MEC2; assay: Annexin V / propidium iodide cell death by flow cytometry, MEC2; conditions: MEC2, 1 IU/ml Erwinase, 0, 18, 24 or 42 hrs
Protocol: MEC2 cells were transfected with control shRNA (shCTRL), shTRAF1 or shPKN1 and then were left untreated or treated with 1 IU/ml Erwinase for 0, 18, 24 or 42 hrs. Cell death was measured by flow cytometry for Annexin V and propidium iodide (PI), where double staining for Annexin V and Propidium iodide (PI) is used to indicate cell death.

mTORC1 = assay: pS6K / pS6 level as marker of mTORC1 activation; conditions: RAJI lymphoma cells
Description: Left: Levels of pS6K in RAJI control cells. Right: Levels of pS6K in RAJI shTRAF1. Upper panels show pS6K, lower panels show GAPDH to control for equal loading. B. Schematic showing link between nutrient stress, mTORC1 and pS6. C. Left: Representative flow cytometry analysis of TRAF1 and phospho-S6 expression in Raji shCTRL and Raji shTraf1 cells. […] FMO is fluorescence minus one control stain. Right: Correlation plot of TRAF1 versus phospho-S6 expression in lymphoma and CLL cell lines (gated on live cells). All flow cytometry is based on gating on live cells (using live/dead staining marker).
In an effort to understand the mechanism of synergy between lowering TRAF1 levels and increased sensitivity to Erwinase, the activity of mTORC1, a key sensor of the nutrient state of the cells, was examined. Nutrient stress inhibits the activation of mTORC1, a key regulator of proliferation, metabolism and cell survival.^35 PhosphoS6K (pS6K), a downstream target of mTORC1, can be used as a marker of mTORC1 activation. […] However, unexpectedly, TRAF1 knockdown cells had lower basal level of pS6K prior to treatment, perhaps explaining the synergistic effect of TRAF1 knockdown with Erwinase treatment (FIG. 11A—compare right to left western blots). […] Further, a correlation between the level of TRAF1 in the cell and the activity of mTORC1 as measured by pS6 levels was shown (FIG. 11C).

TRAF2 = TRAF2 levels by immunoblot during nutrient stress; conditions: RAJI cells; for TRAF2 levels during Erwinase treatment: 1 IU/ml Erwinase, up to 6 hrs
Protocol: (B) Wild type (WT), shCtrl or shTRAF1 RAJI cells were treated with 1 IU/ml Erwinase for 1, 3 or 6 hrs and immunoblotted for TRAF2 and TRAF1.
Right: RAJI cells stably expressing shCtrl or shPKN1 were treated with 1 IU/ml Erwinase for 0, 3 or 6 hrs and lysates were immunoblotted for TRAF2, or as a loading control, GAPDH.
To test the effect of lower levels of TRAF1 on the level of TRAF2 in lymphoma, WT and shTRAF1 RAJI cells were incubated under conditions of nutrient stress (low glutamine). […] In order to mimic conditions of nutrient stress in a manner that can be useful therapeutically, the licensed drug Erwinase (described above) was utilized. […] Of note, in contrast to the work with primary cells, the loss of TRAF2 when TRAF1 is limiting occurred without a need to add reagents to specifically engage a TNFR family member, but rather occurs spontaneously upon nutrient stress.

RAJI cells [4] = assay: MTT cell viability / growth assay; conditions: for cell growth / proliferation with Erwinase (MTT) / tumour growth rate (MTT): RAJI; for cell growth / proliferation with Erwinase (MTT): 1 IU/ml Erwinase; for tumour growth rate (MTT): complete culture medium, no Erwinase
Protocol: MTT reagent was then solubilized with DMSO and absorbance was measured by ELISA plate reader at 560 nm and referenced to absorbance at 620 nm. Data are plotted as fold change relative to untreated shCtrl RAJI cells.
as §3
FIG. 7 provides a rationale for a screen for a PKN1 inhibitor that synergizes with Erwinase: In particular, the assay is used to look for inhibitors that act at nanomolar concentration to reduce cell survival. […] Inhibitors that reduce the signal in the MTT assay by at least 3 fold relative to Erwinase alone will be identified as potential PKN1 inhibitors. This initial screen is amenable to a 96 well plate assay in which each drug candidate is tested on control RAJI cells with and without Erwinase as well as shPKN1 RAJI cells with Erwinase. Candidate drugs that lower the signal on control RAJI cells only in the presence but not in the absence of Erwinase, and have no effect on PKN1 knockdown cells treated with Erwinase, represent candidates for kinase inhibitors that act through PKN1 inhibition to reduce TRAF1 levels. The candidates can then be verified by determining the inhibitory effects on TRAF1 levels.

TRAF1 [5] = assay: TRAF1 levels by Western blot after shRNA knockdown
Protocol: Left: RAJI cells were stably transfected with control small hairpin (sh) RNA or with shRNA designed to knockdown expression of TRAF1 (shRNAs obtained from Open Biosystems (TRC library number: TRCN0000056885 sequence: […]) (SEQ ID NO:1)). TRAF1 levels in RAJI expressing shCtrl or with shTRAF1 were analyzed by Western blot. Protein loading was analyzed based on GAPDH levels. Right: TRAF1 levels in B-chronic lymphocytic leukemia (CLL) lines and Daudi CD5+ (a Burkitt's lymphoma with CLL like properties) were determined by Western blot.
Left: Schematic diagram of TRAF1 indicating site of phosphorylation by PKN1 as identified by Kato et al.^29 Middle: RAJI cells were stably transfected with control shRNA (shCtrl), TRAF1 shRNA (shTRAF1) or PKN1 shRNA (shPKN1) (obtained from Open Biosystems (TRC library number: TRCN0000001484 sequence: […] (SEQ ID NO:2)). Right: Daudi cells were transduced with control shRNA (shCTRL), shRNA targeting TRAF1 (shTRAF1) or shRNA targeting PKN1 (shPKN1). Cells were analyzed for levels of TRAF1, tubulin or GAPDH by western blot. “Pool” refers to bulk transfected cell lines without subcloning.
Based on the finding that primary T cells lacking TRAF1 are sensitive to loss of TRAF2 when 4-1 BB signalling is induced during nutrient stress, the role of the reduction of TRAF1 levels combined with nutrient stress on B lymphomas was tested. […]

[6] = system: panel of lymphoma and the CLL line MEC2; assay: Erwinase sensitivity versus TRAF1 expression in cell line panel; conditions: 1 IU/ml Erwinase, 24 hours; lines with medium/hi TRAF1 expression
Protocol: Correlation plot of TRAF1 expression versus Erwinase sensitivity. Cell lines were treated with 1 IU/ml Erwinase for 24 hours and cell death was measured by AnnexinV/PI staining. Erwinase sensitivity is measured as % of cells AnnexinV^+, PI^+ and/or AnnexinV^+/PI^+ cells. Left: Erwinase sensitivity versus TRAF1 expression (measured by flow cytometry, gated on live cells) for a panel of lymphoma and the CLL line MEC2.
PKN1 stabilizes TRAF1 and TRAF1 serine 146, a target of PKN1 is required for TRAF1 stability (see above). As lowering TRAF1 by PKN1 knockdown increases sensitivity to nutrient stress, knockdown of PKN1 with RNA interference or anti-sense approaches, or inhibition of PKN1 using chemical inhibitors could be used to increase sensitivity to nutrient stress. In order to develop this strategy, biomarker needs to be developed to predict which cancers would be susceptible. To this end, TRAF1 protein expression was measured in a panel of human lymphomas and the CLL cell line MEC2 by flow cytometry and these levels were correlated with sensitivity to the nutrient stress-inducing drug Erwinase. […] However, in cells that express TRAF1 above an MFI of 1500, there was a strong correlation between TRAF1 levels and resistance to cell death induced by nutrient stress (FIG. 13). Cancers with these properties are candidates for therapy with PKN1 in combination with nutrient stress.

Row | Molecule | TRAF1 levels (flow cytometry) (TRAF1 [1]) | sensitivity to Erwinase induced death (Annexin V/PI) (RAJI cells [2]) | constitutive Erk and NF-κB activation (Erk and NF-κB activation) | sensitivity to Erwinase induced death (Annexin V/PI) [3] | level of pS6K / pS6 (mTORC1) | TRAF2 level under low glutamine (TRAF2; nutrient stress (low glutamine), versus WT) | cell growth / proliferation with Erwinase (MTT) (RAJI cells [4]) | tumour growth rate (MTT) (RAJI cells [4]) | TRAF1 levels (TRAF1 [5]; RAJI stably expressing shRNA, versus control treated RAJI) | TRAF2 levels during Erwinase treatment (TRAF2) | TRAF1 levels (TRAF1 [5]; RAJI and Daudi cells with shRNA to PKN1, versus shCtrl) | Erwinase sensitivity (% AnnexinV+ and/or PI+ cells) versus TRAF1 expression [6] | impact of Erwinase alone in MTT assay (RAJI cells [4]; control RAJI, 1 IU/ml, 48 hr)
1 | shTRAF2: shRNA to TRAF2, mature antisense ATGGCGTGGAATCTGCAAGGG | lowers TRAF1 levels | increased susceptibility to Erwinase-mediated nutrient stress | reduces constitutive Erk and NF-κB activation | – | – | – | – | – | – | – | – | – | –
2 | shTRAF1: shRNA designed to knockdown expression of TRAF1, sequence CGTGTGTTTGAGAACATTG (Open Biosystems TRC library) | – | Increases the Sensitivity of RAJI to Erwinase Induced Death | reduces constitutive Erk and NF-κB activation | increases the sensitivity of the Chronic lymphocytic leukemia cell line MEC2 to Erwinase induced death | levels of pS6 are lower | TRAF2 was lost | sensitizes lymphoma to growth inhibition by Erwinase | no impact on the tumour growth rate | substantially lower levels of TRAF1 | – | – | – | –
3 | shPKN1: shRNA targeting PKN1, sequence CTGATGTGTGAGAAGCGGA (Open Biosystems TRC library) | – | Increases the Sensitivity of RAJI to Erwinase Induced Death | – | increases the sensitivity of the Chronic lymphocytic leukemia cell line MEC2 to Erwinase induced death | – | – | sensitizes lymphoma to growth inhibition by Erwinase | no impact on the tumour growth rate | – | sensitizes RAJI cells to TRAF2 loss during nutrient stress | decreases TRAF1 levels | – | –
4 | B1 | – | – | – | – | reduced the level of pS6K | – | arrest in cell growth | – | – | significant reduction in TRAF2 levels only when TRAF1 was reduced by shRNA | – | inverse correlation between TRAF1 levels and Erwinase sensitivity | minimal impact
